Laboratory results published in patent publication US6355799B1, “Substituted benzene compounds, process for their preparation, and herbicidal and defoliant compositions containing them” (ISK Americas Incorporated, priority 1997, dated 2002).

Columns and labels:
Format in all cases: in vivo
[1] = tested on: lambsquarters (Chenopodium album, CHEAL); assay: Post-emerge test, greenhouse herbicide activity screening; conditions: post-emerge, 14 days after application, rating scale 0-100
Method in brief: (§1)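 Visual ratings on a 0-100 scale (0 no damage, 100 all plants dead) were taken at 14 days after treatment. Rates of 15-1000 g ai/ha in acetone, 187 l/ha, were sprayed onto soil one day after planting (pre-emerge) or onto 2-3 leaf plants with 0.25% v/v surfactant (post-emerge).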

[2] = tested on: johnsongrass (Sorghum halepense, SORHA); assay: as above; conditions: post-emerge, 14 days after application, rating scale 0-100
Method in brief: as §1

[3] = tested on: green foxtail (Setaria viridis, SETVI); assay: as above; conditions: post-emerge, 14 days after application, rating scale 0-100
Method in brief: as §1

[4] = tested on: large crabgrass (Digitaria sanguinalis, DIGSA); assay: as above; conditions: post-emerge, 14 days after application, rating scale 0-100
Method in brief: as §1

[5] = tested on: redroot pigweed (Amaranthus retroflexus, AMARE); assay: as above; conditions: post-emerge, 14 days after application, rating scale 0-100
Method in brief: as §1

[6] = tested on: barnyardgrass (Echinochloa crus-galli, ECHCG); assay: as above; conditions: post-emerge, 14 days after application, rating scale 0-100
Method in brief: as §1

[7] = tested on: velvetleaf (Abutilon theophrasti, ABUTH); assay: as above; conditions: post-emerge, 14 days after application, rating scale 0-100
Method in brief: as §1

[8] = tested on: ivyleaf morningglory (Ipomoea hederacea, IPOHE); assay: as above; conditions: post-emerge, 14 days after application, rating scale 0-100
Method in brief: as §1

[9] = tested on: sicklepod (Cassia obtusifolia, CASOB); assay: as above; conditions: post-emerge, 14 days after application, rating scale 0-100
Method in brief: as §1

[10] = tested on: field corn (Zea mays L., var. Dekalb 535, CORN); assay: Pre-emerge test, crop safety; conditions: pre-emerge, 14 days after application, scale 0-100
Method in brief: (§2)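 Applied at 15–1000 g ai/ha from acetone in 187 l/ha spray volume. Post-emergence applications included 0.25% v/v non-ionic surfactant and reached plants sown 8–21 days before. Pre-emergence applications were incorporated by surface watering. Efficacy or crop damage was rated on a 0–100 scale after 14 days.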

[11] = tested on: upland rice (Oryza sp., var. Tebonnet, RICE); assay: Pre-emerge test, crop safety; conditions: pre-emerge, 14 days after application, scale 0-100
Method in brief: as §2

[12] = tested on: lambsquarters (Chenopodium album, CHEAL); assay: Pre-emerge test, greenhouse herbicide activity screening; conditions: pre-emerge, 14 days after application, scale 0-100
Method in brief: (§3)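 Fourteen days after spraying, crop and weed injury was graded visually from 0, no effect, to 100, every plant dead. Test substances were dissolved in acetone and applied at 15–1000 g ai/ha with a flat-fan nozzle. Application was either pre-emergence, one day after sowing, or post-emergence at the 2–3 leaf stage.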

[13] = tested on: johnsongrass (Sorghum halepense, SORHA); assay: as above; conditions: pre-emerge, 14 days after application, scale 0-100
Method in brief: as §3

[14] = tested on: green foxtail (Setaria viridis, SETVI); assay: as above; conditions: pre-emerge, 14 days after application, scale 0-100
Method in brief: as §3

[15] = tested on: large crabgrass (Digitaria sanguinalis, DIGSA); assay: as above; conditions: pre-emerge, 14 days after application, scale 0-100
Method in brief: as §3

[16] = tested on: barnyardgrass (Echinochloa crus-galli, ECHCG); assay: as above; conditions: pre-emerge, 14 days after application, scale 0-100
Method in brief: as §3

[17] = tested on: velvetleaf (Abutilon theophrasti, ABUTH); assay: as above; conditions: pre-emerge, 14 days after application, scale 0-100
Method in brief: as §3

[18] = tested on: common ragweed (Ambrosia artemisizfolia L., AMBEL); assay: as above; conditions: pre-emerge, 14 days after application, scale 0-100
Method in brief: as §3

[19] = tested on: ivyleaf morningglory (Ipomoea hederacea, IPOHE); assay: as above; conditions: pre-emerge, 14 days after application, scale 0-100
Method in brief: as §3

[20] = tested on: sicklepod (Cassia obtusifolia, CASOB); assay: as above; conditions: pre-emerge, 14 days after application, scale 0-100
Method in brief: as §3

[21] = tested on: redroot pigweed (Amaranthus retroflexus, AMARE); assay: as above; conditions: pre-emerge, 14 days after application, scale 0-100
Method in brief: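 Herbicidal damage is scored 0 (none) to 100 (complete plant death) two weeks after a simulated field spray. Rates span 15–1000 g ai/ha, delivered in acetone at 187 l/ha. For post-emergence treatments, plants have 2–3 leaves and the spray carries 0.25% v/v non-ionic surfactant.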

[22] = tested on: field corn (Zea mays L., var. Dekalb 535, CORN); assay: Post-emerge test, crop safety; conditions: post-emerge, 14 days after application, rating scale 0-100
Method in brief: as §3

[23] = tested on: upland rice (Oryza sp., var. Tebonnet, RICE); assay: Post-emerge test, crop safety; conditions: post-emerge, 14 days after application, rating scale 0-100
Method in brief: as §3

What does the source list for `CCCSCC(=O)Nc1c(OC)c(Cl)cc(F)c1-n1c(=O)cc(C(F)(F)F)n(C)c1=O` [2-174]?
CHEAL phytotoxicity rating ([1]; 63 g ai/ha): 55; CHEAL phytotoxicity rating ([1]; 250 g ai/ha): 85; SORHA phytotoxicity rating ([2]; 63 g ai/ha): 0; SORHA phytotoxicity rating ([2]; 250 g ai/ha): 0; SETVI phytotoxicity rating ([3]; 63 g ai/ha): 10; SETVI phytotoxicity rating ([3]; 250 g ai/ha): 10; DIGSA phytotoxicity rating ([4]; 63 g ai/ha): 0; DIGSA phytotoxicity rating ([4]; 250 g ai/ha): 10; AMARE phytotoxicity rating ([5]; 63 g ai/ha): 60; AMARE phytotoxicity rating ([5]; 250 g ai/ha): 60; ECHCG phytotoxicity rating ([6]; 63 g ai/ha): 0; ECHCG phytotoxicity rating ([6]; 250 g ai/ha): 0; ABUTH phytotoxicity rating ([7]; 63 g ai/ha): 60; ABUTH phytotoxicity rating ([7]; 250 g ai/ha): 80; IPOHE phytotoxicity rating ([8]; 63 g ai/ha): 70; IPOHE phytotoxicity rating ([8]; 250 g ai/ha): 80; CASOB phytotoxicity rating ([9]; 63 g ai/ha): 60; CASOB phytotoxicity rating ([9]; 250 g ai/ha): 75; phytotoxicity rating CORN (crop damage) ([10]; 63 g ai/ha): 0; phytotoxicity rating CORN (crop damage) ([10]; 250 g ai/ha): 60; phytotoxicity rating RICE (crop damage) ([11]; 63 g ai/ha): 10; phytotoxicity rating RICE (crop damage) ([11]; 250 g ai/ha): 50; phytotoxicity rating CHEAL ([12]; 63 g ai/ha): 80; phytotoxicity rating CHEAL ([12]; 250 g ai/ha): 100; phytotoxicity rating SORHA ([13]; 63 g ai/ha): 10; phytotoxicity rating SORHA ([13]; 250 g ai/ha): 90; phytotoxicity rating SETVI ([14]; 63 g ai/ha): 20; phytotoxicity rating SETVI ([14]; 250 g ai/ha): 90; phytotoxicity rating DIGSA ([15]; 63 g ai/ha): 20; phytotoxicity rating DIGSA ([15]; 250 g ai/ha): 70; phytotoxicity rating ECHCG ([16]; 63 g ai/ha): 0; phytotoxicity rating ECHCG ([16]; 250 g ai/ha): 60; phytotoxicity rating ABUTH ([17]; 63 g ai/ha): 100; phytotoxicity rating ABUTH ([17]; 250 g ai/ha): 100; phytotoxicity rating AMBEL ([18]; 63 g ai/ha): 10; phytotoxicity rating AMBEL ([18]; 250 g ai/ha): 90; phytotoxicity rating IPOHE ([19]; 63 g ai/ha): 30; phytotoxicity rating IPOHE ([19]; 250 g ai/ha): 100; phytotoxicity rating CASOB ([20]; 63 g ai/ha): 40; phytotoxicity rating CASOB ([20]; 250 g ai/ha): 80; phytotoxicity rating AMARE ([21]; 63 g ai/ha): 90; phytotoxicity rating AMARE ([21]; 250 g ai/ha): 100; CORN phytotoxicity rating (crop damage) ([22]; 63 g ai/ha): 10; CORN phytotoxicity rating (crop damage) ([22]; 250 g ai/ha): 25; RICE phytotoxicity rating (crop damage) ([23]; 63 g ai/ha): 20; RICE phytotoxicity rating (crop damage) ([23]; 250 g ai/ha): 20

With `COc1c(Cl)cc(F)c(-n2c(=O)cc(C(F)(F)F)n(C)c2=O)c1NC(=O)c1ccc2c(C#N)cccc2c1` [2-163] as the compound, how does the CHEAL phytotoxicity rating ([1]; 63 g ai/ha) read?
Its CHEAL phytotoxicity rating is 100.

And the CHEAL phytotoxicity rating ([1]; 250 g ai/ha)?
Its CHEAL phytotoxicity rating is 100.

And the SORHA phytotoxicity rating ([2]; 63 g ai/ha)?
The SORHA phytotoxicity rating was 0.

And the SORHA phytotoxicity rating ([2]; 250 g ai/ha)?
The SORHA phytotoxicity rating was 10.

And the SETVI phytotoxicity rating ([3]; 63 g ai/ha)?
The SETVI phytotoxicity rating was 50.

What about the SETVI phytotoxicity rating ([3]; 250 g ai/ha) of the same compound?
The SETVI phytotoxicity rating was 60.

What about the DIGSA phytotoxicity rating ([4]; 63 g ai/ha) of the same compound?
Its DIGSA phytotoxicity rating is 30.

What about the DIGSA phytotoxicity rating ([4]; 250 g ai/ha) of the same compound?
The DIGSA phytotoxicity rating was 45.

What about the AMARE phytotoxicity rating ([5]; 63 g ai/ha) of the same compound?
Its AMARE phytotoxicity rating is 100.

What about the AMARE phytotoxicity rating ([5]; 250 g ai/ha) of the same compound?
Its AMARE phytotoxicity rating is 100.

What about the ECHCG phytotoxicity rating ([6]; 63 g ai/ha) of the same compound?
The ECHCG phytotoxicity rating was 55.

What about the ECHCG phytotoxicity rating ([6]; 250 g ai/ha) of the same compound?
The ECHCG phytotoxicity rating was 70.

And the ABUTH phytotoxicity rating ([7]; 63 g ai/ha)?
The ABUTH phytotoxicity rating was 99.

And the ABUTH phytotoxicity rating ([7]; 250 g ai/ha)?
Its ABUTH phytotoxicity rating is 100.

What about the IPOHE phytotoxicity rating ([8]; 63 g ai/ha) of the same compound?
The IPOHE phytotoxicity rating was 98.

What about the IPOHE phytotoxicity rating ([8]; 250 g ai/ha) of the same compound?
The IPOHE phytotoxicity rating was 95.

And the CASOB phytotoxicity rating ([9]; 63 g ai/ha)?
Its CASOB phytotoxicity rating is 90.

What about the CASOB phytotoxicity rating ([9]; 250 g ai/ha) of the same compound?
The CASOB phytotoxicity rating was 90.

What about the “phytotoxicity rating CORN (crop damage)” value ([10]; 63 g ai/ha) of the same compound?
Its value is 0.

What about the “phytotoxicity rating CORN (crop damage)” value ([10]; 250 g ai/ha) of the same compound?
Its value is 0.

And the “phytotoxicity rating RICE (crop damage)” value ([11]; 63 g ai/ha)?
Its value is 0.

What about the “phytotoxicity rating RICE (crop damage)” value ([11]; 250 g ai/ha) of the same compound?
Its value is 30.

What about the “phytotoxicity rating CHEAL” value ([12]; 63 g ai/ha) of the same compound?
Its value is 100.

What about the “phytotoxicity rating CHEAL” value ([12]; 250 g ai/ha) of the same compound?
Its value is 100.

And the “phytotoxicity rating SORHA” value ([13]; 63 g ai/ha)?
The value was 0.

And the “phytotoxicity rating SORHA” value ([13]; 250 g ai/ha)?
The value was 30.

What about the “phytotoxicity rating SETVI” value ([14]; 63 g ai/ha) of the same compound?
The value was 60.

What about the “phytotoxicity rating SETVI” value ([14]; 250 g ai/ha) of the same compound?
Its value is 95.

What about the “phytotoxicity rating DIGSA” value ([15]; 63 g ai/ha) of the same compound?
The value was 35.

What about the “phytotoxicity rating DIGSA” value ([15]; 250 g ai/ha) of the same compound?
The value was 100.

What about the “phytotoxicity rating ECHCG” value ([16]; 63 g ai/ha) of the same compound?
Its value is 0.

What about the “phytotoxicity rating ECHCG” value ([16]; 250 g ai/ha) of the same compound?
Its value is 75.

What about the “phytotoxicity rating ABUTH” value ([17]; 63 g ai/ha) of the same compound?
The value was 95.

What about the “phytotoxicity rating ABUTH” value ([17]; 250 g ai/ha) of the same compound?
The value was 100.

What about the “phytotoxicity rating AMBEL” value ([18]; 63 g ai/ha) of the same compound?
Its value is 65.

And the “phytotoxicity rating AMBEL” value ([18]; 250 g ai/ha)?
The value was 95.

And the “phytotoxicity rating IPOHE” value ([19]; 63 g ai/ha)?
Its value is 40.

What about the “phytotoxicity rating IPOHE” value ([19]; 250 g ai/ha) of the same compound?
The value was 95.

What about the “phytotoxicity rating CASOB” value ([20]; 63 g ai/ha) of the same compound?
The value was 10.

And the “phytotoxicity rating CASOB” value ([20]; 250 g ai/ha)?
The value was 60.

And the “phytotoxicity rating AMARE” value ([21]; 63 g ai/ha)?
The value was 100.

What about the “phytotoxicity rating AMARE” value ([21]; 250 g ai/ha) of the same compound?
Its value is 100.

What about the “CORN phytotoxicity rating (crop damage)” value ([22]; 63 g ai/ha) of the same compound?
The value was 35.

And the “CORN phytotoxicity rating (crop damage)” value ([22]; 250 g ai/ha)?
The value was 40.

And the “RICE phytotoxicity rating (crop damage)” value ([23]; 63 g ai/ha)?
The value was 20.

And the “RICE phytotoxicity rating (crop damage)” value ([23]; 250 g ai/ha)?
Its value is 55.
